{"source": "paper PMC9966338", "about": "“Inhibitory Potential of α-Amylase, α-Glucosidase, and Pancreatic Lipase by a Formulation of Five Plant Extracts: TOTUM-63” (International Journal of Molecular Sciences, 2023)", "key": {"α-amylase": {"system": "α-amylase", "parameters": "method as in PMID 30050443", "settings": "based on IC50 values; cited from earlier work"}, "α-glucosidase [1]": {"molecular_target": "T1, α-glucosidase (Saccharomyces cerevisiae, UniProt P53341)", "T1 construct": "purchased Merck/Sigma-Aldrich", "T1 sequence (P53341 whole entry)": "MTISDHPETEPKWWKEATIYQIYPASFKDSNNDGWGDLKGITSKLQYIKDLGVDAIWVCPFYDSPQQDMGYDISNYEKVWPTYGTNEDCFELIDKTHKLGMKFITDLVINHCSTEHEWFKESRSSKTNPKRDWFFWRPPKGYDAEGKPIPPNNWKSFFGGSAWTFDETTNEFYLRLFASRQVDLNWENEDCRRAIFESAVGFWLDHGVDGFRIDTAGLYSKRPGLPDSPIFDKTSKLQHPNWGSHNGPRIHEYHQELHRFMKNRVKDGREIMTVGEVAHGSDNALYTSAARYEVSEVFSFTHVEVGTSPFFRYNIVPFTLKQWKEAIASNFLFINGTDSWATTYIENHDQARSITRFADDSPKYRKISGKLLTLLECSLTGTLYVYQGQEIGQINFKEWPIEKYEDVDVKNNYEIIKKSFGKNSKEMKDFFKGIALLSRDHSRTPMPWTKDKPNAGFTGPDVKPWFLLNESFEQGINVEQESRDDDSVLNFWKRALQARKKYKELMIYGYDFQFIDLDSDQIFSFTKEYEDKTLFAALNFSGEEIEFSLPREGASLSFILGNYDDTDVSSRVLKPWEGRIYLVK", "experiment": "Interactions with α-glucosidase by fluorescence spectrum changes", "format": "binding", "settings": "excitation 285 nm, emission 320–440 nm", "experimental": "Potassium phosphate buffer (0.1 M, pH 6.8) was used as the reaction buffer. The final α-glucosidase concentration in the wells was 1.275 mg/mL. For each microplate well, 20 µL of test product in a 50:50 (v:v) water:ethanol mixture (or 20 µL of this solvent mixture for the controls without products), 100 µL of α-glucosidase in buffer (or 100 µL of buffer for the blanks), and 40 µL of buffer were incubated at 25 °C in a microplate reader for 5 min. Then, fluorescence was measured at an excitation of 285 nm and an emission scan ranging from 320 nm to 440 nm."}, "[2]": {"molecular_target": "T2, α-Glucosidase (maltase from Saccharomyces cerevisiae) (Saccharomyces cerevisiae, UniProt P53341)", "T2 construct": "purchased Merck/Sigma-Aldrich", "T2 sequence (P53341 whole entry)": "as above", "experiment": "α-Glucosidase inhibition kinetics (Lineweaver–Burk, SigmaPlot fit)", "format": "biochemical", "method": "α-glucosidase inhibition kinetics was investigated in vitro using the method described in Section 4.2.1. Inhibition models were determined by analysis of the Lineweaver–Burk plots using four concentrations of substrate and four concentrations of test products (including a “0”, without inhibitor). All initial rates were fitted to all enzymatic kinetic models with one substrate and one inhibitor provided by the Enzyme Kinetics Module of Sigma Plot 12 (Systat Software Inc., San Jose, CA, USA), using non-linear least-square regression models to determine the inhibition model and calculate the inhibitory constant (Ki).\nEquations (2) and (3) (below) were used for data analysis and corresponded to the inhibition models that best fitted our data according to the SigmaPlot software 12 (Systat Software Inc., San Jose, CA, USA) [73]. […] Ki’ corresponds to the second inhibitor dissociation constant because, in a mixed model, the constants for E + I ↔ EI and ES + I ↔ ESI are different. Factor α, given by SigmaPlot (Systat Software Inc., San Jose, CA, USA), represents the equilibrium between Ki’ and Ki. (2) v =Vmax/1+(Km/[S])×(1+[I]/Ki) (3) v =Vmax/(1+[I]/Ki^’)+Km/[S]×(1+[I]/Ki)"}, "α-glucosidase [3]": {"system": "α-glucosidase", "settings": "cited from earlier work"}, "[4]": {"molecular_target": "T2, α-Glucosidase (maltase from Saccharomyces cerevisiae)", "experiment": "biochemical", "format": "biochemical", "from_the_text": "Chrysanthellin B was purchased from Extrasynthese (Genay, France). 2-(N-morpholino)-ethanesulfonic acid (MES) buffer was purchased from ThermoFisher Scientific (Waltham, Massachusetts, USA). NaN3 was obtained from Carlo Erba Reagents (Val-de-Reuil, France). Pure water was obtained using an Evoqua ultra-pure water production system (Water Technologies, Günzburg, Germany). The RED-NHS protein labeling kit was from NanoTemper Technologies (Munich, Germany).\nα-Glucosidase hydrolytic activity was assessed by monitoring the conversion of p-nitrophenyl-α-D-glucopyranoside (PNPg) into p-nitrophenol (PNP). PNP levels were quantified at 405 nm. […] A series of PNP dilutions in buffer was used to generate the standard curve to convert PNP absorbance values into concentrations. The final α-glucosidase concentration corresponded to an activity of 30 µM of PNP/min for negative control without inhibitor. In each microplate well, 20 µL of test products diluted in a 50:50 (v:v) water:ethanol mixture (or 20 µL of this solvent mixture for the negative controls), 20 µL of α-glucosidase in buffer (or 20 µL of buffer for the blanks), and 100 µL of buffer were incubated in a microplate reader at 37 °C for 10 min. Then, 20 µL of PNPg substrate (2.5 mM in buffer) was added to each well to initiate the reaction. A FLUO Star Omega (BMG LabTech, Champigny sur Marne, France) 96-well microplate reader, thermostatically controlled at 37 °C, was used to measure the absorbance at 405 nm, every minute for 30 min. […] (1) % Relative activity=Residual activity/Negative control activity×100"}, "lipase": {"system": "lipase", "parameters": "method as in PMID 36105167", "settings": "based on IC50 values; cited from earlier work"}}, "note": "Where two headings read alike, the source gives them in different places.", "data": [{"smiles": "O=C(/C=C/c1ccc(O)c(O)c1)O[C@@H]1C[C@](OC(=O)/C=C/c2ccc(O)c(O)c2)(C(=O)O)C[C@@H](O)[C@H]1O", "note": "[1,5-dicaffeoylquinic acid]", "values": [{"measurement": "inhibitory activity on α-amylase, times higher than acarbose", "setting": "α-amylase", "value": 6.2, "unit": "times"}]}, {"smiles": "O=C(/C=C/c1ccc(O)c(O)c1)O[C@@H]1[C@H](O)C[C@@](O)(C(=O)O)C[C@H]1OC(=O)/C=C/c1ccc(O)c(O)c1", "note": "[3,4-dicaffeoylquinic acid]", "values": [{"measurement": "inhibitory activity on α-amylase, times higher than acarbose", "setting": "α-amylase", "value": 7.2, "unit": "times"}]}, {"smiles": "O=C(/C=C/c1ccc(O)c(O)c1)O[C@@H]1CC(O)(C(=O)O)C[C@@H](OC(=O)/C=C/c2ccc(O)c(O)c2)C1O", "note": "(stereo partly drawn) [3,5-dicaffeoylquinic acid]", "values": [{"measurement": "inhibitory activity on α-amylase, times higher than acarbose", "setting": "α-amylase", "value": 9.4, "unit": "times"}]}, {"smiles": "O=C(/C=C/c1ccc(O)c(O)c1)O[C@H]1[C@H](O)C[C@](O)(C(=O)O)C[C@H]1OC(=O)/C=C/c1ccc(O)c(O)c1", "note": "[4,5-dicaffeoylquinic acid]", "values": [{"measurement": "inhibitory activity on α-amylase, times higher than acarbose", "setting": "α-amylase", "value": 11.4, "unit": "times"}]}, {"smiles": "C[C@H]1O[C@H](O[C@H]2[C@H](O)[C@@H](O)[C@@H](O[C@H]3[C@H](O)[C@@H](O)C(O)O[C@@H]3CO)O[C@@H]2CO)[C@H](O)[C@@H](O)[C@@H]1N[C@H]1C=C(CO)[C@@H](O)[C@H](O)[C@H]1O", "note": "(stereo partly drawn) [Acarbose, acarbose]", "values": [{"measurement": "α-glucosidase fluorescence intensity with increasing concentrations", "setting": "α-glucosidase [1]", "value": "less obvious effect"}, {"measurement": "Inhibition type", "setting": "[2]; best-fitting model", "value": "Competitive (full)"}, {"measurement": "Vmax", "setting": "[2]; α-glucosidase in the presence of the inhibitor", "value": 0.00182, "unit": "mM/min"}]}, {"smiles": "O=C(/C=C/c1ccc(O)c(O)c1)O[C@@H]1C[C@](O)(C(=O)O)C[C@@H](O)[C@H]1O", "note": "[Chlorogenic acid]", "values": [{"measurement": "α-glucosidase inhibition mechanism", "setting": "α-glucosidase [3]", "value": "mixed"}]}, {"smiles": "CC1OC(OC2C(O)COC(OC3C(C)OC(OC4C(OC(=O)C56CCC(C)(C)CC5C5=CCC7C8(C)CCC(OC9OC(CO)C(O)C(O)C9O)C(C)(CO)C8CCC7(C)C5(C)CC6O)OCC(O)C4O)C(O)C3O)C2O)C(O)C(O)C1O", "note": "(stereo not drawn) [Chrysanthellin B]", "values": [{"measurement": "inhibitory effect on α-glucosidase relative to acarbose", "setting": "[4]", "value": "five times lower"}, {"measurement": "IC50", "setting": "[4]; PNPg substrate, pH 6.8, 37 °C, read-out: IC50 α-Glucosidase (converted)", "value": 127, "unit": "µM"}]}, {"smiles": "O=c1cc(-c2ccc(O)c(O)c2)oc2cc(O)cc(O)c12", "note": "[Luteolin]", "values": [{"measurement": "IC50", "setting": "[4]", "value": 1.4, "unit": "µM"}, {"measurement": "α-glucosidase inhibition mechanism", "setting": "α-glucosidase [3]", "value": "non-competitive"}]}, {"smiles": "CC1(C)CC[C@]2(C(=O)O)CC[C@]3(C)C(=CC[C@@H]4[C@@]5(C)CC[C@H](O)C(C)(C)[C@@H]5CC[C@]43C)[C@@H]2C1", "note": "[Oleanolic acid]", "values": [{"measurement": "inhibitory activity on α-glucosidase, times higher than acarbose", "setting": "α-glucosidase [3]", "value": 162, "unit": "times"}]}, {"smiles": "C/C=C1/[C@H](O[C@@H]2O[C@H](CO)[C@@H](O)[C@H](O)[C@H]2O)OC=C(C(=O)OC)[C@H]1CC(=O)OCCc1ccc(O)c(O)c1", "note": "[Oleuropein]", "values": [{"measurement": "IC50", "setting": "[4]", "value": 5.74, "unit": "µM"}]}, {"smiles": "O=C(/C=C/C=C/c1ccc2c(c1)OCO2)N1CCCCC1", "note": "[Piperine]", "values": [{"measurement": "α-glucosidase inhibition mechanism", "setting": "α-glucosidase [3]", "value": "mixed"}]}, {"smiles": "O=C(/C=C/c1ccc(O)c(O)c1)O[C@@H]1C[C@@](OC(=O)/C=C/c2ccc(O)c(O)c2)(C(=O)O)C[C@@H](O)[C@@H]1O", "note": "[cynarin]", "values": [{"measurement": "inhibitory activity on α-amylase, times higher than acarbose", "setting": "α-amylase", "value": 4.8, "unit": "times"}]}, {"smiles": "O=C1C[C@@H](c2ccc(O)c(O)c2)Oc2cc(O)cc(O)c21", "note": "[eriodictyol]", "values": [{"measurement": "lipase inhibitory activity relative to orlistat", "setting": "lipase", "value": "more than two times higher"}]}, {"smiles": "O=c1cc(-c2ccc(O)c(O)c2)oc2cc(O[C@@H]3O[C@H](CO)[C@@H](O)[C@H](O)[C@H]3O)cc(O)c12", "note": "[luteolin-7-O-glucoside]", "values": [{"measurement": "lipase inhibitory activity relative to orlistat", "setting": "lipase", "value": "more than two times higher"}]}]}
